Reference: PubChem BioAssay (NCI)
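Results reflect a 48-hour exposure of cells in 96-well plates to compound at five concentrations. TGI: concentration producing complete growth inhibition.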

Experiments:
Experiment in all cases: inhibition of tumour cell growth, NCI panel, 48 h
CCRF-CEM leukemia = test system: CCRF-CEM leukemia
SK-OV-3 ovarian = test system: SK-OV-3 ovarian
SK-MEL-5 melanoma = test system: SK-MEL-5 melanoma
DMS 114 small cell lung = test system: DMS 114 small cell lung
OVCAR-5 ovarian = test system: OVCAR-5 ovarian
LXFL 529 NSCLC = test system: LXFL 529 NSCLC
M14 melanoma = test system: M14 melanoma
SF-295 CNS = test system: SF-295 CNS
NCI-H23 lung = test system: NCI-H23 lung
K-562 leukemia = test system: K-562 leukemia
SN12C renal = test system: SN12C renal
IGROV1 ovarian = test system: IGROV1 ovarian
MOLT-4 leukemia = test system: MOLT-4 leukemia
NCI-H226 lung = test system: NCI-H226 lung
HT29 colon = test system: HT29 colon
SK-MEL-2 melanoma = test system: SK-MEL-2 melanoma
OVCAR-3 ovarian = test system: OVCAR-3 ovarian
UACC-62 melanoma = test system: UACC-62 melanoma
SNB-19 CNS = test system: SNB-19 CNS
SW-620 colon = test system: SW-620 colon

Measured: TGI

CCOC(=O)NC(=O)c1cn(CCNCCO)c(=O)[nH]c1=O
> 100 µM: all assays above
